In ChEMBL document CHEMBL5120927, “LEGO-Lipophosphonoxins: A Novel Approach in Designing Membrane Targeting Antimicrobials” (J Med Chem, 2022):

test system: not listed separately; assay: Gradient chromatographic hydrophobicity index of the compound at pH 3.7 by HPLC analysis; format: ADME; conditions: not given

SMILES	CHI
CCC/C=C\CCOP(=O)(CCN(CCCNC(=N)N)CCCNC(=N)N)OCCCCCCOP(=O)(CCN(CCCNC(=N)N)CCCNC(=N)N)OCC/C=C\CCC.Cl.Cl.Cl.Cl.Cl.Cl (stereo unspecified)	29.7
CCCC/C=C\CCOP(=O)(CCN(CCCN)CCCN)OCCCOP(=O)(CCN(CCCN)CCCN)OCC/C=C\CCCC.Cl.Cl.Cl.Cl.Cl.Cl (stereo unspecified)	31.3

test system: Staphylococcus aureus; assay: Antibacterial activity against Staphylococcus aureus ATCC 29213 = CCM 4223 assessed as inhibition of bacterial growth incubated for 24 hrs in presence of BSA by microdilution assay; format: functional; conditions: not given

SMILES	MIC [µg/mL]
CCC/C=C\CCOP(=O)(CCN(CCCNC(=N)N)CCCNC(=N)N)OCCCCCCOP(=O)(CCN(CCCNC(=N)N)CCCNC(=N)N)OCC/C=C\CCC.Cl.Cl.Cl.Cl.Cl.Cl (stereo unspecified)	2
CCCC/C=C\CCOP(=O)(CCN(CCCN)CCCN)OCCCOP(=O)(CCN(CCCN)CCCN)OCC/C=C\CCCC.Cl.Cl.Cl.Cl.Cl.Cl (stereo unspecified)	32

test system: Enterococcus faecium; assay: Antibacterial activity against vancomycin resistant Enterococcus faecium 419/ANA assessed as reduction in microbial growth incubated for 24 hrs by microdilution assay; format: functional; conditions: not given

SMILES	MIC [µg/mL]
CCC/C=C\CCOP(=O)(CCN(CCCNC(=N)N)CCCNC(=N)N)OCCCCCCOP(=O)(CCN(CCCNC(=N)N)CCCNC(=N)N)OCC/C=C\CCC.Cl.Cl.Cl.Cl.Cl.Cl (stereo unspecified)	> 128
CCCC/C=C\CCOP(=O)(CCN(CCCN)CCCN)OCCCOP(=O)(CCN(CCCN)CCCN)OCC/C=C\CCCC.Cl.Cl.Cl.Cl.Cl.Cl (stereo unspecified)	> 128

test system: Pseudomonas aeruginosa; assay: Antibacterial activity against multidrug-resistant Pseudomonas aeruginosa assessed as reduction in microbial growth incubated for 24 hrs by microdilution assay; format: functional; conditions: not given

SMILES	MIC [µg/mL]
CCC/C=C\CCOP(=O)(CCN(CCCNC(=N)N)CCCNC(=N)N)OCCCCCCOP(=O)(CCN(CCCNC(=N)N)CCCNC(=N)N)OCC/C=C\CCC.Cl.Cl.Cl.Cl.Cl.Cl (stereo unspecified)	64
CCCC/C=C\CCOP(=O)(CCN(CCCN)CCCN)OCCCOP(=O)(CCN(CCCN)CCCN)OCC/C=C\CCCC.Cl.Cl.Cl.Cl.Cl.Cl (stereo unspecified)	128

test system: Escherichia coli; assay: Antibacterial activity against Escherichia coli ATCC 25922 = CCM 3954 assessed as inhibition of bacterial growth incubated for 24 hrs in presence of BSA by microdilution assay; format: functional; conditions: not given

SMILES	MIC [µg/mL]
CCC/C=C\CCOP(=O)(CCN(CCCNC(=N)N)CCCNC(=N)N)OCCCCCCOP(=O)(CCN(CCCNC(=N)N)CCCNC(=N)N)OCC/C=C\CCC.Cl.Cl.Cl.Cl.Cl.Cl (stereo unspecified)	2
CCCC/C=C\CCOP(=O)(CCN(CCCN)CCCN)OCCCOP(=O)(CCN(CCCN)CCCN)OCC/C=C\CCCC.Cl.Cl.Cl.Cl.Cl.Cl (stereo unspecified)	128

test system: Enterococcus faecalis; assay: Antibacterial activity against Enterococcus faecalis ATCC 29212 = CCM 4224 assessed as inhibition of bacterial growth incubated for 24 hrs by microdilution assay; format: functional; conditions: not given

SMILES	MIC [µg/mL]
CCC/C=C\CCOP(=O)(CCN(CCCNC(=N)N)CCCNC(=N)N)OCCCCCCOP(=O)(CCN(CCCNC(=N)N)CCCNC(=N)N)OCC/C=C\CCC.Cl.Cl.Cl.Cl.Cl.Cl (stereo unspecified)	64
CCCC/C=C\CCOP(=O)(CCN(CCCN)CCCN)OCCCOP(=O)(CCN(CCCN)CCCN)OCC/C=C\CCCC.Cl.Cl.Cl.Cl.Cl.Cl (stereo unspecified)	128

test system: Staphylococcus epidermidis; assay: Antibacterial activity against Staphylococcus epidermidis CCM 7221 assessed as inhibition of bacterial growth incubated for 24 hrs by microdilution assay; format: functional; conditions: not given

SMILES	MIC [µg/mL]
CCC/C=C\CCOP(=O)(CCN(CCCNC(=N)N)CCCNC(=N)N)OCCCCCCOP(=O)(CCN(CCCNC(=N)N)CCCNC(=N)N)OCC/C=C\CCC.Cl.Cl.Cl.Cl.Cl.Cl (stereo unspecified)	2
CCCC/C=C\CCOP(=O)(CCN(CCCN)CCCN)OCCCOP(=O)(CCN(CCCN)CCCN)OCC/C=C\CCCC.Cl.Cl.Cl.Cl.Cl.Cl (stereo unspecified)	8

test system: Staphylococcus aureus; assay: Antibacterial activity against Staphylococcus aureus ATCC 29213 = CCM 4223 assessed as inhibition of bacterial growth incubated for 24 hrs by microdilution assay; format: functional; conditions: not given

SMILES	MIC [µg/mL]
CCC/C=C\CCOP(=O)(CCN(CCCNC(=N)N)CCCNC(=N)N)OCCCCCCOP(=O)(CCN(CCCNC(=N)N)CCCNC(=N)N)OCC/C=C\CCC.Cl.Cl.Cl.Cl.Cl.Cl (stereo unspecified)	2
CCCC/C=C\CCOP(=O)(CCN(CCCN)CCCN)OCCCOP(=O)(CCN(CCCN)CCCN)OCC/C=C\CCCC.Cl.Cl.Cl.Cl.Cl.Cl (stereo unspecified)	16

test system: Escherichia coli; assay: Antibacterial activity against multidrug-resistant Escherichia coli CE5556 expressing CTX-M-15 assessed as reduction in microbial growth incubated for 24 hrs by microdilution assay; format: functional; conditions: not given

SMILES	MIC [µg/mL]
CCC/C=C\CCOP(=O)(CCN(CCCNC(=N)N)CCCNC(=N)N)OCCCCCCOP(=O)(CCN(CCCNC(=N)N)CCCNC(=N)N)OCC/C=C\CCC.Cl.Cl.Cl.Cl.Cl.Cl (stereo unspecified)	2
CCCC/C=C\CCOP(=O)(CCN(CCCN)CCCN)OCCCOP(=O)(CCN(CCCN)CCCN)OCC/C=C\CCCC.Cl.Cl.Cl.Cl.Cl.Cl (stereo unspecified)	128

test system: not listed separately; assay: Hemolytic activity in human RBC assessed as haemoglobin release measured after 3 hr; format: toxicity, cell-based, Erythrocyte; conditions: red blood cells (erythrocytes)

SMILES	HC50 at 3 h [µg/mL]
CCC/C=C\CCOP(=O)(CCN(CCCNC(=N)N)CCCNC(=N)N)OCCCCCCOP(=O)(CCN(CCCNC(=N)N)CCCNC(=N)N)OCC/C=C\CCC.Cl.Cl.Cl.Cl.Cl.Cl (stereo unspecified)	> 500
CCCC/C=C\CCOP(=O)(CCN(CCCN)CCCN)OCCCOP(=O)(CCN(CCCN)CCCN)OCC/C=C\CCCC.Cl.Cl.Cl.Cl.Cl.Cl (stereo unspecified)	> 200

test system: Escherichia coli; assay: Antibacterial activity against Escherichia coli ATCC 25922 = CCM 3954 assessed as inhibition of bacterial growth incubated for 24 hrs by microdilution assay; format: functional; conditions: not given

SMILES	MIC [µg/mL]
CCC/C=C\CCOP(=O)(CCN(CCCNC(=N)N)CCCNC(=N)N)OCCCCCCOP(=O)(CCN(CCCNC(=N)N)CCCNC(=N)N)OCC/C=C\CCC.Cl.Cl.Cl.Cl.Cl.Cl (stereo unspecified)	2
CCCC/C=C\CCOP(=O)(CCN(CCCN)CCCN)OCCCOP(=O)(CCN(CCCN)CCCN)OCC/C=C\CCCC.Cl.Cl.Cl.Cl.Cl.Cl (stereo unspecified)	128

test system: Staphylococcus aureus; assay: Antibacterial activity against methicillin resistant Staphylococcus aureus 4591/A assessed as reduction in microbial growth incubated for 24 hrs by microdilution assay; format: functional; conditions: not given

SMILES	MIC [µg/mL]
CCC/C=C\CCOP(=O)(CCN(CCCNC(=N)N)CCCNC(=N)N)OCCCCCCOP(=O)(CCN(CCCNC(=N)N)CCCNC(=N)N)OCC/C=C\CCC.Cl.Cl.Cl.Cl.Cl.Cl (stereo unspecified)	2
CCCC/C=C\CCOP(=O)(CCN(CCCN)CCCN)OCCCOP(=O)(CCN(CCCN)CCCN)OCC/C=C\CCCC.Cl.Cl.Cl.Cl.Cl.Cl (stereo unspecified)	16

test system: Pseudomonas aeruginosa; assay: Antibacterial activity against Pseudomonas aeruginosa ATCC 27853 = CCM 3955 assessed as inhibition of bacterial growth incubated for 24 hrs by microdilution assay; format: functional; conditions: not given

SMILES	MIC [µg/mL]
CCC/C=C\CCOP(=O)(CCN(CCCNC(=N)N)CCCNC(=N)N)OCCCCCCOP(=O)(CCN(CCCNC(=N)N)CCCNC(=N)N)OCC/C=C\CCC.Cl.Cl.Cl.Cl.Cl.Cl (stereo unspecified)	64
CCCC/C=C\CCOP(=O)(CCN(CCCN)CCCN)OCCCOP(=O)(CCN(CCCN)CCCN)OCC/C=C\CCCC.Cl.Cl.Cl.Cl.Cl.Cl (stereo unspecified)	64
